Reference: patent US20140206681A1, “BTK INHIBITORS” (priority 2013, published 2014)

What was measured:
[1] = biological target: T1, BTK enzyme (recombinant full-length BTK, hBTK) (Homo sapiens, UniProt Q06187); experiment: BTK enzyme activity assay, LANCE TR-FRET; format: biochemical; settings: 50 pM hBTK, 2 μM biotin-A5-peptide, 25 μM ATP; 60 min compound & enzyme incubation; read-out: IC50 BTK activity value
T1 construct: recombinant protein from baculovirus-transfected Sf9 cells: full-length BTK, 6HIS-tag cleaved; 6HIS (cleaved yes); made in house; host or cells: baculovirus-transfected Sf9 cells
T1 sequence (Q06187 whole entry): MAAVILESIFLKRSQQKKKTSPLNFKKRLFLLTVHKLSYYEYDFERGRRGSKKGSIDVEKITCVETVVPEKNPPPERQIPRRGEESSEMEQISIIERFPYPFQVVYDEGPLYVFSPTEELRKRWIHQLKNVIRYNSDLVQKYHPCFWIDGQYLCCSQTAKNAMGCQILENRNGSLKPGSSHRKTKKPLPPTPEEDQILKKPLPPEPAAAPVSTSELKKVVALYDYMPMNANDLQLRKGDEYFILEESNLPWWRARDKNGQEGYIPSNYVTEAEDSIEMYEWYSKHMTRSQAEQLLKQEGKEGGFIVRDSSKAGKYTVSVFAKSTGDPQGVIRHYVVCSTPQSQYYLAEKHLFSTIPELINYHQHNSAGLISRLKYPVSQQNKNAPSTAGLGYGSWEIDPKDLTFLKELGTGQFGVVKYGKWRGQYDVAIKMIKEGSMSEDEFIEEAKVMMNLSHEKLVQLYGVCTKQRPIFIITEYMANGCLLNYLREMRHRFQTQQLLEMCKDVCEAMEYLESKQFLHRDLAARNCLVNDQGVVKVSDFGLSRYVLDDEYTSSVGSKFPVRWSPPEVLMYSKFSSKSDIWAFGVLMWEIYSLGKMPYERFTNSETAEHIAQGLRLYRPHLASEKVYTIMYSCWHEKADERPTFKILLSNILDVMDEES

HeLa cells = experiment: [3H]Adenosine uptake functional cellular assay; format: cell-based; settings: Homo sapiens, HeLa, accumulation of [3H]adenosine into HeLa cells; compound range 10 μM to […]; read-out: Adenosine uptake inhibition IC50
Procedure: Compounds are also screened in an adenosine uptake functional cellular assay using the protocol described below. The adenosine uptake inhibition assay may be used to identify compounds with the potential for a negative cardiovascular side effect.
Adenosine uptake activity was determined by monitoring the accumulation of tritiated adenosine into HeLa cells (ATCC catalog # CCL-2) using a PMT-based radiometric detection instrument. […] These cells were incubated overnight at 37° C. in a humidified atmosphere with 5% (v/v) CO2. After this time the growth medium was removed and replaced with 40 μL assay medium comprising: Hanks balanced salts solution (HBSS; Thermo Fisher Catalog # SH30268.01)+5% (v/v) FBS. […] 40 μL of compound in the assay medium was dispensed into individual wells of the Cytostar-T plates and the plates were incubated for 30 minutes under ambient laboratory conditions. Following this incubation, 20 μL of 500 nM [^3H]adenosine (American Radiolabeled Chemicals Inc. Catalog # ART0287) was added in the assay medium and incubated for a further 60 minutes under ambient laboratory conditions. The amount of radiolabel accumulation was then determined using a Perkin Elmer Topcount NXT microplate reader. In brief, HeLa cells adhere to the bottom of the Cytostar-T plate, uptake of [^3H]adenosine into these cells brings the radiolabel into sufficient proximity to excite the scintillant in the base of the plates. These events are captured by single PMT, time-resolved coincidence counting. IC50 values were determined by 4 parameter robust fit of counts per second values vs. (Log10) compound concentrations.

Row | Structure (SMILES) | IC50 [1] [nM] | IC50 (HeLa cells) [nM]
1 | Nc1nccn2c([C@@H]3CC[C@H]4CCC(=O)N4C3)nc(-c3ccc(C(=O)Nc4cc(OC5CC5)ccn4)cc3F)c12 [Example 43, 4-{8-amino-3-[(6R,8aS)-3-oxooctahydroindolizin-6-yl]imidazo[1,5-a]pyrazin-1-yl}-N-[4-(cyclopropyloxy)pyridin-2-yl]-3-fluorobenzamide] | 0.13 | –
2 | Nc1nccn2c([C@@H]3CC[C@@H]4CNCC(=O)N4C3)nc(-c3ccc(C(=O)Nc4cc(C(F)(F)F)ccn4)cc3)c12 [Example 54, 4-{8-amino-3-[(7R,9aR)-4-oxooctahydro-2H-pyrido[1,2-a]pyrazin-7-yl]imidazo[1,5-a]pyrazin-1-yl}-N-[4-(trifluoromethyl)pyridin-2-yl]benzamide] | 9.6 | –
3 | Nc1nccn2c([C@@H]3CC[C@H]4COCCN4C3)nc(-c3ccc(C(=O)Nc4cc(C(F)(F)F)ccn4)cc3)c12 [Example 55, 4-{8-amino-3-[(7R,9aS)-octahydropyrido[2,1-c][1,4]oxazin-7-yl]imidazo[1,5-a]pyrazin-1-yl}-N-[4-(trifluoromethyl)pyridin-2-yl]benzamide] | 0.3 | –
4 | C[C@@H]1CC(=O)N2C[C@H](c3nc(-c4ccc(C(=O)Nc5cc(C(F)(F)F)ccn5)cc4)c4c(N)nccn34)CC[C@@H]12 [Example 62, 4-{8-amino-3-[(1R,6R,8aS)-1-methyl-3-oxooctahydroindolizin-6-yl]imidazo[1,5-a]pyrazin-1-yl}-N-[4-(trifluoromethyl)pyridin-2-yl]benzamide] | 6.7 | –
5 | Nc1nccn2c([C@@H]3CC[C@@H]4C[C@H](O)C(=O)N4C3)nc(-c3ccc(C(=O)Nc4cc(C(F)(F)F)ccn4)cc3)c12 [Example 75, 4-{8-amino-3-[(2S,6R,8aR)-2-hydroxy-3-oxooctahydroindolizin-6-yl]imidazo[1,5-a]pyrazin-1-yl}-N-[4-(trifluoromethyl)pyridin-2-yl]benzamide] | 7.6 | –
6 | CN1CC[C@@H]2CC[C@@H](c3nc(-c4ccc(C(=O)Nc5cc(C(F)(F)F)ccn5)cc4)c4c(N)nccn34)CN2C1=O [Example 83, 4-(8-amino-3-((4aS,7R)-2-methyl-1-oxooctahydro-1H-pyrido[1,2-c]pyrimidin-7-yl)imidazo[1,5-a]pyrazin-1-yl)-N-(4-(trifluoromethyl)pyridin-2-yl)benzamide] | – | 124
7 | CC(C)(C(=O)O)N1CC(=O)N2C[C@H](c3nc(-c4ccc(C(=O)Nc5cc(C(F)(F)F)ccn5)cc4)c4c(N)nccn34)CC[C@H]2C1 [Example 86, 2-((7R,9aS)-7-(8-amino-1-(4-((4-(trifluoromethyl)pyridin-2-yl)carbamoyl)phenyl)imidazo[1,5-a]pyrazin-3-yl)-4-oxohexahydro-1H-pyrido[1,2-a]pyrazin-2(6H)-yl)-2-methylpropanoic acid] | 0.45 | –
8 | CC1(C)C[C@@H]2CC[C@@H](c3nc(-c4ccc(C(=O)Nc5cc(C(F)(F)F)ccn5)cc4)c4c(N)nccn34)CN2C1=O [Example 95, 4-{8-amino-3-[(6R,8aS)-2,2-dimethyl-3-oxooctahydroindolizin-6-yl]imidazo[1,5-a]pyrazin-1-yl}-N-[4-(trifluoromethyl)pyridin-2-yl]benzamide] | 11.4 | –
9 | CCOc1cc(C(=O)Nc2cc(C(F)(F)F)ccn2)ccc1-c1nc([C@@H]2CC[C@H]3CC(C)(C)C(=O)N3C2)n2ccnc(N)c12 [Example 113, 4-{8-amino-3-[(6R,8aS)-2,2-dimethyl-3-oxooctahydroindolizin-6-yl]imidazo[1,5-a]pyrazin-1-yl}-3-ethoxy-N-[4-(trifluoromethyl)pyridin-2-yl]benzamide] | 0.54 | –
10 | Cc1c(C(F)(F)F)ccnc1NC(=O)c1ccc(-c2nc([C@@H]3CC[C@H]4CCC(=O)N4C3)n3ccnc(N)c23)cc1 [Example 122, 4-{8-amino-3-[(6R,8aS)-3-oxooctahydroindolizin-6-yl]imidazo[1,5-a]pyrazin-1-yl}-N-[3-methyl-4-(trifluoromethyl)pyridin-2-yl]benzamide] | 12.4 | –
11 | Nc1nccn2c([C@@H]3CC[C@H]4CCC(=O)N4C3)nc(-c3ccc(C(=O)Nc4cc(C(F)(F)F)cc(C5CCC5)n4)cc3)c12 [Example 126, 4-{8-amino-3-[(6R,8aS)-3-oxooctahydroindolizin-6-yl]limidazo[1,5-a]pyrazin-1-yl}-N-[6-cyclobutyl-4-(trifluoromethyl)pyridin-2-yl]benzamide] | 766 | –
12 | CCOc1cc(C(=O)Nc2cc(C(F)(F)F)ccn2)c(F)cc1-c1nc([C@@H]2CC[C@H]3CCC(=O)N3C2)n2c(Cl)cnc(N)c12 [Example 133, 4-{8-amino-5-chloro-3-[(6R,8aS)-3-oxooctahydroindolizin-6-yl]imidazo[1,5-a]pyrazin-1-yl}-5-ethoxy-2-fluoro-N-[4-(trifluoromethyl)pyridin-2-yl]benzamide] | 0.55 | –
13 | COc1cc(C(=O)Nc2cc(C(F)(F)F)ccn2)ccc1-c1nc([C@@H]2CC[C@H]3CCC(=O)N3C2)n2c(Cl)cnc(N)c12 [Example 143, 4-{8-amino-5-chloro-3-[(6R,8aS)-3-oxooctahydroindolizin-6-yl]imidazo[1,5-a]pyrazin-1-yl}-3-methoxy-N-[4-(trifluoromethyl)pyridin-2-yl]benzamide] | 0.22 | –
14 | Nc1ncc(Cl)n2c([C@@H]3CC[C@H]4CCC(=O)N4C3)nc(-c3ccc(C(=O)Nc4cc(C(F)(F)F)ccn4)cc3OC3CC3)c12 [Example 144, 4-{8-amino-5-chloro-3-[(6R,8aS)-3-oxooctahydroindolizin-6-yl]imidazo[1,5-a]pyrazin-1-yl}-3-(cyclopropyloxy)-N-[4-(trifluoromethyl)pyridin-2-yl]benzamide] | 0.5 | –
15 | Cc1cnc(NC(=O)c2ccc(-c3nc([C@@H]4CC[C@H]5CCC(=O)N5C4)n4c(Cl)cnc(N)c34)cc2)s1 [Example 154, 4-{8-amino-5-chloro-3-[(6R,8aS)-3-oxooctahydroindolizin-6-yl]imidazo[1,5-a]pyrazin-1-yl}-N-(5-methyl-1,3-thiazol-2-yl)benzamide] | 0.81 | –
16 | Cn1nc(NC(=O)c2ccc(-c3nc([C@@H]4CC[C@H]5CCC(=O)N5C4)n4ccnc(N)c34)cc2)cc1C(F)(F)F [Example 171, 4-{8-amino-3-[(6R,8aS)-3-oxooctahydroindolizin-6-yl]imidazo[1,5-a]pyrazin-1-yl}-N-[1-methyl-5-(trifluoromethyl)-1H-pyrazol-3-yl]benzamide] | 0.41 | –
17 | Nc1nccn2c([C@@H]3CC[C@H]4CCC(=O)N4C3)nc(-c3ccc(C(=O)Nc4ncc[nH]4)cc3)c12 [Example 172, 4-{8-amino-3-[(6R,8aS)-3-oxooctahydroindolizin-6-yl]imidazo[1,5-a]pyrazin-1-yl}-N-1H-imidazol-2-ylbenzamide] | 50.7 | –
18 | Nc1nccn2c([C@@H]3CC[C@H]4CCC(=O)N4C3)nc(-c3ccc(C(=O)Nc4cc(C(F)(F)F)on4)cc3)c12 [Example 173, 4-{8-amino-3-[(6R,8aS)-3-oxooctahydroindolizin-6-yl]imidazo[1,5-a]pyrazin-1-yl}-N-[5-(trifluoromethyl)isoxazol-3-yl]benzamide] | 245 | –
19 | Nc1nccn2c([C@@H]3CC[C@H]4CCC(=O)N4C3)nc(-c3ccc(C(=O)Nc4cc(C(F)(F)F)no4)cc3)c12 [Example 174, 4-{8-amino-3-[(6R,8aS)-3-oxooctahydroindolizin-6-yl]imidazo[1,5-a]pyrazin-1-yl}-N-[3-(trifluoromethyl)isoxazol-5-yl]benzamide] | 241 | –
20 | Cn1nc(NC(=O)c2ccc(-c3nc([C@@H]4CC[C@H]5CCC(=O)N5C4)n4ccnc(N)c34)cc2)cc1C1CC1 [Example 181, 4-{8-amino-3-[(6R,8aS)-3-oxooctahydroindolizin-6-yl]imidazo[1,5-a]pyrazin-1-yl}-N-(5-cyclopropyl-1-methyl-1H-pyrazol-3-yl)benzamide] | 0.93 | –
21 | CCOC(=O)c1oc(NC(=O)c2ccc(-c3nc([C@@H]4CC[C@H]5CCC(=O)N5C4)n4ccnc(N)c34)cc2)nc1C(F)(F)F [Example 184, ethyl 2-{[(4-{8-amino-3-[(6R,8aS)-3-oxooctahydroindolizin-6-yl]imidazol[1,5-a]pyrazin-1-yl}phenyl)carbonyl]amino}-4-(trifluoromethyl)-1,3-oxazole-5-carboxylate] | 155 | –
22 | Cc1cc(C(=O)Nc2cc(C(F)(F)F)n(C)n2)ccc1-c1nc([C@@H]2CC[C@H]3CCC(=O)N3C2)n2ccnc(N)c12 [Example 186, 4-{8-amino-3-[(6R,8aS)-3-oxooctahydroindolizin-6-yl]imidazo[1,5-a]pyrazin-1-yl}-3-methyl-N-[1-methyl-5-(trifluoromethyl)-1H-pyrazol-3-yl]benzamide] | 6.9 | –
23 | CCOc1cc(C(=O)Nc2cc(C(F)(F)F)ccn2)ccc1-c1nc([C@@H]2CC[C@@H]3N(C2)C(=O)CC3(C)C)n2ccnc(N)c12 [Example 222, 4-(8-amino-3-((6R,8aS)-1,1-dimethyl-3-oxooctahydroindolizin-6-yl)imidazo[1,5-a]pyrazin-1-yl)-3-ethoxy-N-(4-(trifluoromethyl)pyridin-2-yl)benzamide] | 0.2 | –
